According to PubChem BioAssay AID1918956 (Molecular Pharmacology Branch, DTP, NCI, 2023):
Values joined by “and” are separate entries in the source; they are usually repeats but may differ in a detail not shown here. Equal entries are not always repeated. One block for each compound: values may come before it.

System: OVCAR-5 complex spheroids, viability
Experiment: Anticancer human tumor OVCAR-5 cell line growth inhibition;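 note: spheroids exposed to agents for seven days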;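 for viability, T/C: 100% = DMSO vehicle control wells viability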
Details: for viability, T/C: stronger effect = lower value
Method in brief: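 Drug combinations with the LSD1 inhibitor iadademstat tested on tumor cells co-cultured as spheroids with endothelial cells and mesenchymal stem cells. Concentrations descended in half-log increments from clinical Cmax or 10 microM.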

[1] = curve of first compound, second compound 0.1 µM
[2] = curve of first compound, second compound 0.316 µM
[3] = curve of first compound, second compound 1 µM
[4] = curve of first compound, second compound 3.16 µM
[5] = curve of first compound, second compound 10 µM
[6] = second compound 0.1 µM, first compound 0.00949 µM
[7] = second compound 0.1 µM, first compound 0.03 µM
[8] = second compound 0.1 µM, first compound 0.0949 µM
[9] = second compound 0.1 µM, first compound 0.3 µM
[10] = second compound 0.316 µM, first compound 0.00949 µM
[11] = second compound 0.316 µM, first compound 0.03 µM
[12] = second compound 0.316 µM, first compound 0.0949 µM
[13] = second compound 0.316 µM, first compound 0.3 µM
[14] = second compound 1 µM, first compound 0.00949 µM
[15] = second compound 1 µM, first compound 0.03 µM
[16] = second compound 1 µM, first compound 0.0949 µM
[17] = second compound 1 µM, first compound 0.3 µM
[18] = second compound 3.16 µM, first compound 0.00949 µM
[19] = second compound 3.16 µM, first compound 0.03 µM
[20] = second compound 3.16 µM, first compound 0.0949 µM
[21] = second compound 3.16 µM, first compound 0.3 µM
[22] = second compound 10 µM, first compound 0.00949 µM
[23] = second compound 10 µM, first compound 0.03 µM
[24] = second compound 10 µM, first compound 0.0949 µM
[25] = second compound 10 µM, first compound 0.3 µM

SMILES: CC1COCCN1c1cc(-c2ccnn2C)c2ccnc(-c3ccn[nH]3)c2n1 (configuration not stated) + NC1CC1c1ccc(-c2cccc(O)c2)cc1
IC50 [1]: 0.0316 µM
IC50 [2]: 0.033 µM
IC50 [3]: 0.0246 µM
IC50 [4]: 0.0252 µM
IC50 [5]: 0.0199 µM
viability, T/C (second compound 0.1 µM, first compound 0.00316 µM): 98.8%
viability, T/C (second compound 0.1 µM, first compound 0.01 µM): 79.8%
viability, T/C (second compound 0.1 µM, first compound 0.0316 µM): 49%
viability, T/C (second compound 0.1 µM, first compound 0.1 µM): 35.6%
viability, T/C (second compound 0.1 µM, first compound 0.316 µM): 31.7%
viability, T/C (second compound 0.1 µM, first compound 1 µM): 27.9%
viability, T/C (second compound 0.316 µM, first compound 0.00316 µM): 105%
viability, T/C (second compound 0.316 µM, first compound 0.01 µM): 79.1%
viability, T/C (second compound 0.316 µM, first compound 0.0316 µM): 49.6%
viability, T/C (second compound 0.316 µM, first compound 0.1 µM): 36.5%
viability, T/C (second compound 0.316 µM, first compound 0.316 µM): 30.4%
viability, T/C (second compound 0.316 µM, first compound 1 µM): 27.9%
viability, T/C (second compound 1 µM, first compound 0.00316 µM): 91.3%
viability, T/C (second compound 1 µM, first compound 0.01 µM): 72.8%
viability, T/C (second compound 1 µM, first compound 0.0316 µM): 42.3%
viability, T/C (second compound 1 µM, first compound 0.1 µM): 33.4%
viability, T/C (second compound 1 µM, first compound 0.316 µM): 27.3%
viability, T/C (second compound 1 µM, first compound 1 µM): 25.8%
viability, T/C (second compound 3.16 µM, first compound 0.00316 µM): 88.9%
viability, T/C (second compound 3.16 µM, first compound 0.01 µM): 75.1%
viability, T/C (second compound 3.16 µM, first compound 0.0316 µM): 43%
viability, T/C (second compound 3.16 µM, first compound 0.1 µM): 32.8%
viability, T/C (second compound 3.16 µM, first compound 0.316 µM): 31.1%
viability, T/C (second compound 3.16 µM, first compound 1 µM): 25.3%
viability, T/C (second compound 10 µM, first compound 0.00316 µM): 95.9%
viability, T/C (second compound 10 µM, first compound 0.01 µM): 62.1%
viability, T/C (second compound 10 µM, first compound 0.0316 µM): 42.5%
viability, T/C (second compound 10 µM, first compound 0.1 µM): 30.4%
viability, T/C (second compound 10 µM, first compound 0.316 µM): 31.3%
viability, T/C (second compound 10 µM, first compound 1 µM): 26%

IC50 (curve of compound): > 10 µM
SMILES: CC(C)c1c(-c2ccccc2)nc2c(C#N)c[nH]n2c1=O
viability, T/C (compound 0.0316 µM): 117% and 105%
viability, T/C (compound 0.1 µM): 108% and 94.7%
viability, T/C (compound 0.316 µM): 107% and 104%
viability, T/C (compound 1 µM): 107% and 102%
viability, T/C (compound 3.16 µM): 117% and 104%
viability, T/C (compound 10 µM): 104% and 100%

SMILES: COc1cc(C2c3cc4c(cc3C(OC3OC5COC(C)OC5C(O)C3O)C3COC(=O)C23)OCO4)cc(OC)c1O (configuration not stated) + NC1CCC(NC2CC2c2ccccc2)CC1
IC50 [1]: 0.836 µM
IC50 [2]: 0.763 µM
IC50 [3]: 0.89 µM
IC50 [4]: 0.737 µM
IC50 [5]: 0.712 µM
viability, T/C [6]: 113%
viability, T/C [7]: 105%
viability, T/C [8]: 100%
viability, T/C [9]: 73.5%
viability, T/C (second compound 0.1 µM, first compound 0.949 µM): 45.6%
viability, T/C (second compound 0.1 µM, first compound 3 µM): 41.4%
viability, T/C [10]: 106%
viability, T/C [11]: 106%
viability, T/C [12]: 100%
viability, T/C [13]: 71%
viability, T/C (second compound 0.316 µM, first compound 0.949 µM): 43.6%
viability, T/C (second compound 0.316 µM, first compound 3 µM): 43.9%
viability, T/C [14]: 98.7%
viability, T/C [15]: 106%
viability, T/C [16]: 103%
viability, T/C [17]: 76.7%
viability, T/C (second compound 1 µM, first compound 0.949 µM): 50%
viability, T/C (second compound 1 µM, first compound 3 µM): 44.2%
viability, T/C [18]: 99.9%
viability, T/C [19]: 105%
viability, T/C [20]: 103%
viability, T/C [21]: 70.9%
viability, T/C (second compound 3.16 µM, first compound 0.949 µM): 42.8%
viability, T/C (second compound 3.16 µM, first compound 3 µM): 45.4%
viability, T/C [22]: 89.4%
viability, T/C [23]: 93%
viability, T/C [24]: 82.9%
viability, T/C [25]: 67.7%
viability, T/C (second compound 10 µM, first compound 0.949 µM): 42.5%
viability, T/C (second compound 10 µM, first compound 3 µM): 40.9%

SMILES: Nc1ccn(C2OC(CO)C(O)C2(F)F)c(=O)n1 (configuration not stated) + NC1CCC(NC2CC2c2ccccc2)CC1
IC50 [1]: < 0.000949 µM
IC50 [2]: < 0.000949 µM
IC50 [3]: < 0.000949 µM
IC50 [4]: < 0.000949 µM
IC50 [5]: < 0.000949 µM
viability, T/C (second compound 0.1 µM, first compound 0.000949 µM): 27.8%
viability, T/C (second compound 0.1 µM, first compound 0.003 µM): 29%
viability, T/C [6]: 30.3%
viability, T/C [7]: 31.4%
viability, T/C [8]: 30.7%
viability, T/C [9]: 28.6%
viability, T/C (second compound 0.316 µM, first compound 0.000949 µM): 29.5%
viability, T/C (second compound 0.316 µM, first compound 0.003 µM): 30.3%
viability, T/C [10]: 31%
viability, T/C [11]: 32.4%
viability, T/C [12]: 30.8%
viability, T/C [13]: 30.6%
viability, T/C (second compound 1 µM, first compound 0.000949 µM): 32.8%
viability, T/C (second compound 1 µM, first compound 0.003 µM): 33.5%
viability, T/C [14]: 34.3%
viability, T/C [15]: 33.2%
viability, T/C [16]: 32.7%
viability, T/C [17]: 31.2%
viability, T/C (second compound 3.16 µM, first compound 0.000949 µM): 32.8%
viability, T/C (second compound 3.16 µM, first compound 0.003 µM): 34.4%
viability, T/C [18]: 35.5%
viability, T/C [19]: 36.3%
viability, T/C [20]: 33.7%
viability, T/C [21]: 31.9%
viability, T/C (second compound 10 µM, first compound 0.000949 µM): 33.3%
viability, T/C (second compound 10 µM, first compound 0.003 µM): 34.9%
viability, T/C [22]: 36.8%
viability, T/C [23]: 34.6%
viability, T/C [24]: 34.9%
viability, T/C [25]: 33.1%
